Assay results as given in patent publication US7402548B2, “Benzoxazole compounds, process for producing the same and herbicides” (Kyoyu Agri Co., Ltd., priority 2000, dated 2008).

What was measured:
[1] = tested on: morning glory; test: Foliar spread test for upland field; assay type: in vivo, Ipomoea spps.; set-up: key: 0 = normal development, 5 = all killed (6 ranks vs. untreated); details: foliar spray, 500 ppm, 3 weeks, glass house 25° C.
Outline: (§1)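 Seeds were sown in volcanic ash soil in Wagner pots and grown about 2 weeks in a glass house at an average 25° C. Wettable-powder formulations diluted to 500 ppm in water with 0.5% surfactant were sprayed uniformly over the plants. After 3 further weeks at 25° C, damage was scored 0 (normal) to 5 (all killed) against untreated plants.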

[2] = tested on: arrowhead; test: Herbicidal test for paddy field; assay type: in vivo, Sagittaria pygmaea; details: 500 g/ha, dropwise addition to paddy water at 1.5 leaf stage of barnyard grass; glass house 25° C., 3 weeks; rank 0-5 vs non-treated district
Outline: (§2)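 Wettable-powder formulations in water with 0.05% surfactant were dripped onto flooded (3 cm) Ube alluvial-soil pots at 500 g/ha, applied at barnyard grass 1.5-leaf stage. Plants were kept in a glasshouse at 25° C. for 3 weeks. Damage was scored 0 (normal) to 5 (all killed) versus untreated plants.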

[3] = tested on: velvetleaf; test: Soil treatment test for upland field; assay type: in vivo, Abutilon theophrasti; set-up: key: 0 = normal development, 5 = all killed; details: 500 g/ha, 3 weeks, glass house 25° C.
Outline: (§3)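 Using a pre-emergence soil application at 500 g/ha, treated pots were held 3 weeks in a glass house averaging 25° C. Injury was graded on a 0–5 scale against non-treated pots; "-" marks entries not investigated.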

[4] = tested on: green foxtail; test: Soil treatment test for upland field; assay type: in vivo, Setaria viridis; set-up: key: 0 = normal development, 5 = all killed; details: 500 g/ha, 3 weeks, glass house 25° C.
Outline: as §3

[5] = tested on: common lambsquarters; test: Soil treatment test for upland field; assay type: in vivo, Chenopodium album; set-up: key: 0 = normal development, 5 = all killed; details: 500 g/ha, 3 weeks, glass house 25° C.
Outline: as §3

[6] = tested on: velvetleaf; test: Foliar spread test for upland field; assay type: in vivo, Abutilon theophrasti; set-up: key: 0 = normal development, 5 = all killed (6 ranks vs. untreated); details: foliar spray, 500 ppm, 3 weeks, glass house 25° C.
Outline: as §1

[7] = tested on: green foxtail; test: Foliar spread test for upland field; assay type: in vivo, Setaria viridis; set-up: key: 0 = normal development, 5 = all killed (6 ranks vs. untreated); details: foliar spray, 500 ppm, 3 weeks, glass house 25° C.
Outline: as §1

[8] = tested on: Large crabgrass; test: Foliar spread test for upland field; assay type: in vivo, Digitaria adscendens; set-up: key: 0 = normal development, 5 = all killed (6 ranks vs. untreated); details: foliar spray, 500 ppm, 3 weeks, glass house 25° C.
Outline: as §1

[9] = tested on: livid amaranth; test: Foliar spread test for upland field; assay type: in vivo, Amaranthus lividus; set-up: key: 0 = normal development, 5 = all killed (6 ranks vs. untreated); details: foliar spray, 500 ppm, 3 weeks, glass house 25° C.
Outline: as §1

[10] = tested on: Large crabgrass; test: Soil treatment test for upland field; assay type: in vivo, Digitaria adscendens; set-up: key: 0 = normal development, 5 = all killed; details: 500 g/ha, 3 weeks, glass house 25° C.
Outline: as §3

[11] = tested on: common lambsquarters; test: Foliar spread test for upland field; assay type: in vivo, Chenopodium album; set-up: key: 0 = normal development, 5 = all killed (6 ranks vs. untreated); details: foliar spray, 500 ppm, 3 weeks, glass house 25° C.
Outline: as §1

[12] = tested on: sugar beat; test: Soil treatment test for upland field; assay type: in vivo; set-up: key: 0 = normal development, 5 = all killed; details: 500 g/ha, 3 weeks, glass house 25° C.
Outline: as §3

[13] = tested on: wheat; test: Soil treatment test for upland field; assay type: in vivo; set-up: key: 0 = normal development, 5 = all killed; details: 500 g/ha, 3 weeks, glass house 25° C.
Outline: as §3

[14] = tested on: corn; test: Soil treatment test for upland field; assay type: in vivo; set-up: key: 0 = normal development, 5 = all killed; details: 500 g/ha, 3 weeks, glass house 25° C.
Outline: as §3

[15] = tested on: solgum; test: Soil treatment test for upland field; assay type: in vivo; set-up: key: 0 = normal development, 5 = all killed; details: 500 g/ha, 3 weeks, glass house 25° C.
Outline: as §3

[16] = tested on: blackgrass; test: Foliar spread test for upland field; assay type: in vivo, Alopecurus aegualis; set-up: key: 0 = normal development, 5 = all killed (6 ranks vs. untreated); details: foliar spray, 500 ppm, 3 weeks, glass house 25° C.
Outline: as §1

[17] = tested on: barnyard grass; test: Herbicidal test for paddy field; assay type: in vivo, Eschinochloa crusgalli; details: 500 g/ha, dropwise addition to paddy water at 1.5 leaf stage of barnyard grass; glass house 25° C., 3 weeks; rank 0-5 vs non-treated district
Outline: as §2

[18] = tested on: sugar beat; test: Foliar spread test for upland field; assay type: in vivo; set-up: key: 0 = normal development, 5 = all killed (6 ranks vs. untreated); details: foliar spray, 500 ppm, 3 weeks, glass house 25° C.
Outline: as §1

[19] = tested on: soybean; test: Foliar spread test for upland field; assay type: in vivo; set-up: key: 0 = normal development, 5 = all killed (6 ranks vs. untreated); details: foliar spray, 500 ppm, 3 weeks, glass house 25° C.
Outline: as §1

[20] = tested on: wheat; test: Foliar spread test for upland field; assay type: in vivo; set-up: key: 0 = normal development, 5 = all killed (6 ranks vs. untreated); details: foliar spray, 500 ppm, 3 weeks, glass house 25° C.
Outline: as §1

[21] = tested on: corn; test: Foliar spread test for upland field; assay type: in vivo; set-up: key: 0 = normal development, 5 = all killed (6 ranks vs. untreated); details: foliar spray, 500 ppm, 3 weeks, glass house 25° C.
Outline: as §1

[22] = tested on: solgum; test: Foliar spread test for upland field; assay type: in vivo; set-up: key: 0 = normal development, 5 = all killed (6 ranks vs. untreated); details: foliar spray, 500 ppm, 3 weeks, glass house 25° C.
Outline: as §1

[23] = tested on: cotton; test: Foliar spread test for upland field; assay type: in vivo; set-up: key: 0 = normal development, 5 = all killed (6 ranks vs. untreated); details: foliar spray, 500 ppm, 3 weeks, glass house 25° C.
Outline: as §1

[24] = tested on: bulrush; test: Herbicidal test for paddy field; assay type: in vivo, Scrips juncoides; details: 500 g/ha, dropwise addition to paddy water at 1.5 leaf stage of barnyard grass; glass house 25° C., 3 weeks; rank 0-5 vs non-treated district
Outline: as §2

[25] = tested on: blackgrass; test: Soil treatment test for upland field; assay type: in vivo, Alopecurus aegualis; set-up: key: 0 = normal development, 5 = all killed; details: 500 g/ha, 3 weeks, glass house 25° C.
Outline: as §3

[26] = tested on: Cassia obtusifolia; test: Foliar spread test for upland field; assay type: in vivo; set-up: key: 0 = normal development, 5 = all killed; details: foliar spray, 500 ppm, 3 weeks, glass house 25° C.
Outline: as §1

[27] = tested on: Xanthium pensylvanicum; test: Foliar spread test for upland field; assay type: in vivo; set-up: key: 0 = normal development, 5 = all killed; details: foliar spray, 500 ppm, 3 weeks, glass house 25° C.
Outline: as §1

[28] = tested on: barnyardgrjass; test: Foliar spread test for upland field; assay type: in vivo, Eschinochloa crusgalli; set-up: key: 0 = normal development, 5 = all killed (6 ranks vs. untreated); details: foliar spray, 500 ppm, 3 weeks, glass house 25° C.
Outline: as §1

[29] = tested on: annual bluegrass; test: Foliar spread test for upland field; assay type: in vivo, Poa annua; set-up: key: 0 = normal development, 5 = all killed (6 ranks vs. untreated); details: foliar spray, 500 ppm, 3 weeks, glass house 25° C.
Outline: as §1

[30] = tested on: livid amaranth; test: Soil treatment test for upland field; assay type: in vivo, Amaranthus lividus; set-up: key: 0 = normal development, 5 = all killed; details: 500 g/ha, 3 weeks, glass house 25° C.
Outline: as §3

[31] = tested on: sicklepod (Cassia obtusifolia); test: Soil treatment test for upland field; assay type: in vivo; details: 500 g/ha, 3 weeks, glass house 25° C.
Method: (§4) The herbicidal effects are evaluated according to the following 6 ranks as compared with non-treated district. (0: normal development, 1: Less damaged, 2: Slightly damaged, 3: Moderately damaged, 4: Severely damaged, 5: All killed). Incidentally, “-” in the column means not investigated.
(§5) Wagner pots, each having an area of 1/5000 are, were packed with Ube soil (alluvial soil), and then each seed of corn, soybean, cotton, wheat, solgum, sugar beat, Large crabgrass, barnyard grass, green foxtail, blackgrass, annual bluegrass, common lambsquarters, livid amaranth, velvetleaf, morning glory, common Cocklebur (Xanthium strumarium) and sicklepod (Cassia obtusifolia) were planted and covered with soil.
(§6) Each wettable powder of the desired compounds (I) shown in Tables 1 to 21, 24, 25, 28 and 29 prepared in accordance with Example 2 was diluted with water containing a surfactant (0.05%) and uniformly sprayed on the surface of each soil so that an effective concentration of the compound (I) in each herbicide became 500 g/ha.
(§7) These plants were controlled in a glass house at an average temperature of 25° C. for 3 weeks, and then herbicidal effects thereof were investigated.
(§8) The herbicidal effects were evaluated according to the evaluation method described in the above (1).

[32] = tested on: common Cocklebur (Xanthium strumarium); test: Soil treatment test for upland field; assay type: in vivo; details: 500 g/ha, 3 weeks, glass house 25° C.
Method: as §4, §5, §6, §7, §8

[33] = tested on: Cyperus serotinus Rottb.; test: Herbicidal test for paddy field; assay type: in vivo; details: 500 g/ha, dropwise addition to paddy water at 1.5 leaf stage of barnyard grass; glass house 25° C., 3 weeks; rank 0-5 vs non-treated district
Outline: as §2

[34] = tested on: morning glory; test: Soil treatment test for upland field; assay type: in vivo, Ipomoea spps.; set-up: key: 0 = normal development, 5 = all killed; details: 500 g/ha, 3 weeks, glass house 25° C.
Outline: as §3

[35] = tested on: annual bluegrass; test: Soil treatment test for upland field; assay type: in vivo, Poa annua; set-up: key: 0 = normal development, 5 = all killed; details: 500 g/ha, 3 weeks, glass house 25° C.
Outline: as §3

[36] = tested on: barnyard grass; test: Soil treatment test for upland field; assay type: in vivo, Eschinochloa crusgalli; set-up: key: 0 = normal development, 5 = all killed; details: 500 g/ha, 3 weeks, glass house 25° C.
Outline: as §3

[37] = tested on: soybean; test: Soil treatment test for upland field; assay type: in vivo; set-up: key: 0 = normal development, 5 = all killed; details: 500 g/ha, 3 weeks, glass house 25° C.
Outline: as §3

[38] = tested on: cotton; test: Soil treatment test for upland field; assay type: in vivo; details: 500 g/ha, 3 weeks, glass house 25° C.
Method: as §4, §5, §6, §7, §8

| Compound | Effects Morning glory [1] | Effects Velvetleaf [3] | Effects Green foxtail [4] | Effects Common lambsquarters [5] | Effects Velvetleaf [6] | Effects Green foxtail [7] | Effects Large crabgrass [8] | Effects Livid amaranth [9] | Effects Large crabgrass [10] | Effects Common lambsquarters [11] | Effects Sugar beat [12] | Effects Wheat [13] | Effects Corn [14] | Effects Solgum [15] | Effects Blackgrass [16] | Effects Sugar beat [18] | Effects Soybean [19] | Effects Wheat [20] | Effects Corn [21] | Effects Solgum [22] | other results |
| --- | --- | --- | --- | --- | --- | --- | --- | --- | --- | --- | --- | --- | --- | --- | --- | --- | --- | --- | --- | --- | --- |
| FC(F)(F)c1cccc(Oc2cccc(-c3nc4ccccc4o3)n2)c1 [I-a-1] | 5 | 3 | 5 | 5 | 4 | 5 | 4 | 5 | 5 | 5 | 5 | 1 | 0 | 2 | 2 | 4 | 5 | 2 | 2 | 2 | Effects Arrowhead [2]: 1; Effects Barnyardgrass [17]: 4; Effects Sotton [23]: 4; Effects Bulrush [24]: 2; Effects Blackgrass [25]: 4; Effects Sicklepod [26]: 5; Effects Common Cocklebur [27]: 4; Effects Barnyardgrass [28]: 3; Effects Annual bluegrass [29]: 4; Effects Livid amaranth [30]: 5; Effects Sicklepod [31]: 3; Effects Common Cocklebur [32]: 5; Effects Cyperus serotinus Rottb. [33]: 2; Effects Morning glory [34]: 4; Effects Annual bluegrass [35]: 5; Effects Barnyardgrass [36]: 4 |
| CC/C(=C\c1ccc(F)c(C(F)(F)F)c1)c1nc2cc(Cl)ccc2o1 [I-c-54, (E)-2-(5-chlorobenzoxazol-2-yl)-1-(4-fluoro-3-trifluoromethylphenyl)butene] | 3 | 5 | 5 | 5 | 3 | 4 | 4 | 5 | 5 | 5 | 5 | 1 | 1 | 2 | 4 | 5 | 4 | 2 | 3 | 3 | Effects Soybean [37]: 5; Effects Barnyardgrass [17]: 5; Effects Sotton [23]: 3; Effects Bulrush [24]: 3; Effects Blackgrass [25]: 5; Effects Barnyardgrass [28]: 2; Effects Annual bluegrass [29]: 4; Effects Livid amaranth [30]: 5; Effects Sotton [38]: 3; Effects Cyperus serotinus Rottb. [33]: 3; Effects Morning glory [34]: 5; Effects Annual bluegrass [35]: 5; Effects Barnyardgrass [36]: 5 |
| CCC(O)(Cc1ccc(F)c(C(F)(F)F)c1)c1nc2cc(Cl)ccc2o1 (stereo not drawn) [I-d-11, 1-(5-chlorobenzoxazol-2-yl)-1-(4-fluoro-3-trifluoromethylbenzyl)propanol] |  |  |  |  |  |  |  |  |  |  |  |  |  |  |  |  |  |  |  |  | melting point: 90 to 93 °C |
| CCC(F)(Cc1ccc(F)c(C(F)(F)F)c1)c1nc2cc(Cl)ccc2o1 (stereo not drawn) [I-d-13, 1-(5-chlorobenzoxazol-2-yl)-1-(4-fluoro-3-trifluoromethylbenzyl)propyl fluoride] | 5 | 5 | 5 | 5 | 4 | 2 | 2 | 5 | 5 | 5 | 5 | 0 | 0 | 0 | 1 | 5 | 5 | 1 | 2 | 1 | Effects Sotton [23]: 5; Effects Blackgrass [25]: 4; Effects Barnyardgrass [28]: 1; Effects Annual bluegrass [29]: 1; Effects Livid amaranth [30]: 5; Effects Sotton [38]: 0; Effects Morning glory [34]: 1; Effects Annual bluegrass [35]: 5; Effects Barnyardgrass [36]: 2 |
